Data on three molecules can be found in US6663846B1, “Devices and methods for monitoring drug therapy compliance” (priority 1998, dated 2003).

Data set [1] is described as follows: Emission spectra, front-face illumination, excitation at 600 nm. The data set is classed as physicochemical. The following applies: for emission peak: in 0.5% intralipid; for emission maximum: in water. As for the experimental part: All fluorescence measurements were performed using front-face illumination and detection, using the sample holder shown in FIG. 18. The incident light was redirected from the usual position using two mirrors. The position of the sample could be adjusted with a movable stage. The re-emergent light passed through one or more optical filters prior to reaching the destination.
The sample consisted of either a cuvette containing the intralipid, or a quartz slide covering the chicken muscle and skin (FIG. 19). Excitation at 600 nm was provided by the fundamental output of a rhodamine 6G dye laser. This dye laser was synchronously pumped by a mode-locked argon ion laser, and cavity dumped at 1.88 MHz.
For the present studies we used two fluorophores with ns decay times, Rh800 and IcG, and a long lifetime metal ligand complex. We refer to this long lifetime reference as the Ru complex (FIG. 1). All three fluorophores can be excited at 600 nm. In water Rh800 emits maximally near 706 nm, and IcG near 805 nm. […] The emission spectra of Rh800 and IcG in 0.5% intralipid is similar to those observed in water (FIG. 2).

For data set [2] the following is noted: humans; cited from earlier work.
Data set [3] can be described thus: Frequency-domain intensity decay (fluorescence lifetime) measurements. It is filed as physicochemical. The following applies: for decay time: Rh800 in 0.5% intralipid, Ru complex in PVA film. The method, then:
Frequency domain intensity decay measurements were performed as described previously. Phase angles and modulation measurements at frequencies greater than 1.88 MHz were accomplished using the harmonic content of the picosecond pulses. The excitation was polarized vertically, and the emission detected without an emission polarizer. The re-emergent light was either observed directly, or through two cut-off filters (630 and 660 nm) to remove scattered light and/or attenuate the fluorophore emission relative to that of the long lived reference.
A long lifetime reference signal was provided by [Ru(bPY)2(dppz)](PF6)^2 in a polyvinyl alcohol (PVA) film, where bpy is 2,2′-bipyridine and dppz is dipyrido[3,2-a:2′,3′-cl]phenazine. Such metal-ligand complexes are known to display lifetimes from 100 ns to 13 (s. The intensity decay time of [Ru(bpy)2(dppz)](PF6)2 in the PVA film was near 800 ns (Table 1 as shown in FIG. 20).
The intensity decay data was analyzed in terms of the multi-exponential model [formula]
In this expression αi represents the pre-exponential factors associated with each lifetime τi. The fractional contribution of each decay time component to the steady state intensity is given by [formula]
The values of Σαi and Σfi are typically normalized to unity. The mean lifetime is given by [formula]
In the frequency-domain measurements the measured quantities are the phase shift of the emission […] and its modulation (m107) at the light modulation frequency ωi in radians/sec. The values of αi and τi are determined by non-linear least squares fitting and minimization of the goodness-of-fit parameter X^2R. [formula]
In this expression the subscript c refers to calculated values of φω and mω for assumed values of αi and τi and ν is the number of degrees of freedom. δω and δm represent the uncertainties in the measured values. In some cases we performed a global analysis of data measured at more than one fluorophore concentrations. In this case the sum in equation 3 extends over these multiple concentrations (k).
We examined the frequency-domain intensity decay of Rh800 and IcG in 0.5% intralipid. As the concentration of Rh800 increased the frequency response shifted to higher frequency (FIG. 5). […] In 0.5% intralipid the intensity decay of Rh800 becomes more complex. The data could be fit to a two decay time model. The individual decay times and the mean decay times decreased with increasing Rh800 concentrations (FIG. 6). Similar results are found for IcG, with the decay times and mean decay time decreasing with increasing IcG concentration (Table III, as shown in FIG. 22).

For data set [4] the following is noted: cited from earlier work.

In data set [1], `CC1(C)C(/C=C/C=C/C=C/C=C2\N(CCCCS(=O)(=O)O)c3ccc4ccccc4c3C2(C)C)=[N+](CCCCS(=O)(=O)[O-])c2ccc3ccccc3c21` [IcG, indocyanine green] displayed an emission peak of around 820 nm and an emission maximum of around 805 nm. For the same molecule, the clearance from circulation result in data set [2] is “rapidly cleared from circulation”.

As to “Ruthenium bis-2,2′-bipyridine dipyridophenazine [Ru complex]”, the decay time in data set [3] came out at 834 ns. The “intensity decay time in PVA film” value in data set [3] (polyvinyl alcohol film) is listed as around 800 ns. For the same molecule, in data set [4], the fluorescence in water result is “essentially non-fluorescent in water”.

In the case of Rhodamine 800 [Rh800], in data set [1], the emission peak is around 710 nm and the emission maximum is given as around 706 nm. Moreover, the decay time in data set [3] was 1.62 ns. Besides, the intensity decay time in data set [3] (in water, no intralipid, single exponential) is reported as 0.686 ns.
